Source: US20230372263A1, “METHODS AND COMPOSITIONS FOR TREATING AMYOTROPHIC LATERAL SCLEROSIS” (Amylyx Pharmaceuticals, Inc., priority 2022, published 2023)
Blank lines part the entries; values can stand above or below the compound they belong to.

Tests used:
[1] = Population pharmacokinetic model and simulations of PB and PAA (healthy subjects and ALS patients); set-up: species or system human; details: for Cmax, Mean: from individual Bayesian (post hoc) parameter estimates; for Cmax, 2.5th percentile / Cmax, 97.5th percentile / Cmax, Geometric mean / Cmax, Median: post hoc Bayesian estimates; for CL/F, apparent (oral) metabolic clearance of phenylbutyrate to phenylacetate / Ka, PB oral absorption rate constant under fasting conditions / Ka, oral absorption rate constant when phenylbutyrate is administered with food / V/F, apparent volume of distribution of phenylbutyrate: population PK
Excerpt: The order of administration with and without food was randomly assigned. […] Subjects were advised to take the drug before a meal. […] No inter-occasion variability (IOV) was included.

clinical [2] = assay type: in vivo, human; details: human, in vivo; for concentration at 1 h / concentration at 4 h: both sexes
Method: • 1. […] Treatment is administered as one sachet daily for the initial 3 weeks and then increased if tolerated to one sachet twice daily. […] Sampling times are randomly assigned to occur at either 1 or 4 hours post-dose at the 12 week visit and the other time at the 24 week visit. • Treatment duration: 24 weeks • 2.
(§1) • Protocol AMX3500: sparse sampling in 87 subjects with ALS. Approximately 2 samples are collected for each subject, 1 or 4 hours post dose following 12 and 24 weeks of treatment. • Protocol A35-002: rich sampling in 14 healthy adults. Approximately 21 samples are collected over 24 hours for each subject on two occasions, once following a high fat meal and the other under fasting conditions.
Subjects were advised to take the drug before a meal. […] Referred to as protocol 3500.
A study was carried out to examine plasma concentration data in various subgroups for the protocol AMX3500 Phase 2 study. This example summarizes plasma concentrations of TUDCA and 2 metabolites, also related acids, UDCA, the de-conjugated TUDCA metabolite, and GUDCA, the glycine conjugate of UDCA.
For each of the 2 treatment arms (treatment and placebo), subjects were further divided into 2 sample sequence groups for schedule of pharmacokinetic measurements: • 1. 1 hour post-dose for the Week 12 visit and 4 hours post-dose for the Week 24 visit • 2. 4 hours post-dose for the Week 12 visit and 1 hour post-dose for the Week 24 visit
Twenty-four distinct medication descriptions were identified as containing antibiotics. Dates of antibiotic use were compared to dates of visits and if the antibiotic use date range contained the visit date, then that visit was flagged for that subject's data for antibiotic use. […] These antibiotics could hypothetically be in a subject's body still if this event occurred. However, it was observed that only a small number of subjects took antibiotics near to visit dates but not overlapping visit dates. In other cases, subjects were taking antibiotics on the date of one visit but not the others. Some subjects are therefore in both categories of antibiotic use and nonuse, though no individual visits for a subject are counted in both categories at the same time.
Subjects whose race were recorded as “Black” or “African American” were evaluated according to the standard Glomerular Filtration Rate (eGFR) rating for that race. The other standard eGFR rating used, sometimes referred to as a standard for people who are White, was applied to subjects of all other races. These rates were analyzed as continuous in mL/min/1.73 m2 units and as the following categories: • 1. Less than 90 mL/min/1.73 m^2 • 2. Equal to or greater than 90 mL/min/1.73 m^2
Age was converted from a continuous variable to 2 categories: • 1. As old or older than 65 years old • 2. Younger than 65 years old
All boxplots boxes are bounded at the 25th and 75th percentile, with whiskers at 10th and 90th percentiles, outliers beyond that as points, the black line as median, and red line as mean.

[3] = Plasma protein binding in vitro; assay type: in vitro ADME; details: plasma, co-administered in vitro
[4] = within 24 hours; cited from earlier work
clinical [5] = assay type: in vivo, human; details: human, in vivo
Method: as §1
A total of 14 healthy subjects were enrolled in order to have no fewer than 12 subjects complete. A predefined mix of gender was selected.
Each study period followed the same study design (FIG. 1). Subjects were screened for inclusion in the study up to 28 days before dosing. Subjects were admitted to the clinical unit during Study Day −2 for Period 1 and Day −1 for Period 2 and were dosed in the morning of Day 1. On the night prior to Period 1 the subjects in the fasted/fed or fed/fasted sequence were fasted for a minimum of 10 h prior to dosing.
The solution was stirred until the powder was mostly dissolved.
Any departures from the intended regimen were recorded in the eCRFs. All dose administrations were performed in the study center under the supervision of appropriately trained staff.
Subjects were provided with a light snack and were then fasted from all food and drink (except water) until the following morning, when they were provided with a high-fat breakfast. The breakfast was consumed over a maximum period of 25 min, and dosing occurred 30 min after the start of breakfast. Subjects were encouraged to eat their meal evenly over the 25 min period. For this trial the subject was deemed compliant if they consumed >80% of the high-fat standard breakfast.
The subjects in the 24-h baseline and in the fasted condition Period remained fasted up to 4 h post-dose and were offered a standardized meal to be taken between 4.00 and 5.00 h post-dose. Subjects in the fed condition were fasted overnight and received a high-fat standard breakfast 30 minutes pre-dose and then remained fasted for 4.00 to 5.00 h post-dose when they received a standardized meal.
Venous blood samples were withdrawn via an indwelling cannula or by venipuncture according to the time schedule presented in Table 5 Table, Table 6, and Table 7.
Blood samples of approximately 4 mL were collected into 4 mL BD Vacutainer Plastic K2EDTA Tubes with Lavender Hemogard Closure, and was gently inverted approximately 8 times. The tubes were then immediately stored on ice and processed within 60 min of collection by centrifugation at 1500 g for 10 min at 2 to 8° C. The resultant plasma was separated equally into 2 aliquots and transferred to 2 mL appropriately labelled primary and backup polypropylene cryovials.
Actual elapsed time from dosing was to be used for the final plasma PK parameter calculations after database lock.

human hepatocytes = experiment: Metabolites in hepatocytes in vitro; assay type: in vitro ADME
Plasma protein = Plasma protein binding in vitro; assay type: in vitro ADME; details: co-administered in vitro
[6] = both sexes, elimination half-lives (range)
[7] = Steady-state plasma concentration

effect of age on pharmacokinetics ([1]; ALS patients aged 65-76 versus less than 65 years, model-based analysis): no significant difference
Cmax, Mean ([1]; ALS patients, Fasting): 131000 ng/mL
Cmax, 2.5th percentile ([1]; ALS patients, Fasting): 10300 ng/mL
Cmax, 97.5th percentile ([1]; ALS patients, Fasting): 414000 ng/mL
Cmax, Geometric mean ([1]; ALS patients, Fasting): 90900 ng/mL
Cmax, Median ([1]; ALS patients, Fasting): 97900 ng/mL
Cmax, Mean ([1]; ALS patients, Fed): 48400 ng/mL
Cmax, 2.5th percentile ([1]; ALS patients, Fed): 8740 ng/mL
Cmax, 97.5th percentile ([1]; ALS patients, Fed): 112000 ng/mL
Cmax, Geometric mean ([1]; ALS patients, Fed): 39400 ng/mL
Cmax, Median ([1]; ALS patients, Fed): 43900 ng/mL
estimated steady-state mean Cmax ([1]; ALS patients, based on population PK): 131000 ng/mL
terminal elimination half-life ([1]; based on typical values for CLPB/F and VPB/F): 0.45 h
effect of mild renal insufficiency on pharmacokinetics ([1]; eGFR greater than 60 mL/min, model-based analysis): no significant correlation
decrease in Ka, fed versus fasting ([1]; final model projection): 60%
CL/F, apparent (oral) metabolic clearance of phenylbutyrate to phenylacetate ([1]; Bootstrap Median): 14.7 L/h
Ka, PB oral absorption rate constant under fasting conditions ([1]; Bootstrap Median): 1.96
Ka, oral absorption rate constant when phenylbutyrate is administered with food ([1]; Bootstrap Median): 0.779
V/F, apparent volume of distribution of phenylbutyrate ([1]; Bootstrap Median): 9.7 L
CL/F, apparent (oral) metabolic clearance of phenylbutyrate to phenylacetate ([1]; Final Model mean estimate): 14.8 L/h
Ka, PB oral absorption rate constant under fasting conditions ([1]; Final Model mean estimate): 1.92
Ka, oral absorption rate constant when phenylbutyrate is administered with food ([1]; Final Model mean estimate): 0.767
V/F, apparent volume of distribution of phenylbutyrate ([1]; Final Model mean estimate): 9.6 L
accumulation in plasma after once- or twice-daily dosing (clinical [2]): no accumulation
fraction unbound [3]: 0.18
half-life (clinical [5]; both sexes, T1/2): 0.46 h
Tmax (clinical [5]; both sexes, Tmax): 0.5 h
Tmax (clinical [5]; both sexes, Tmax Median): 0.5 h
half-life (clinical [5]; [6]): 0.4 to 0.71 h
Cmax (clinical [5]; both sexes, mean Cmax): 188000 ng/mL
Cmax (clinical [5]; both sexes, po, Cmax): 188000 ng/mL
AUC(0-inf) Adj Geo Mean (clinical [5]; both): 261000 ng·h/mL
AUC(0-last), Adj Geo Mean (clinical [5]; both): 241000 ng·h/mL
Cmax, Adj Geo Mean (clinical [5]; both): 191000 ng/mL
Tmax (clinical [5]; both): 0.25 h
concentrations remained quantifiable until (clinical [5]; both): 3.00 to 5.00 h
decrease in AUC with high-fat, high-calorie meal (clinical [5]; both): 55%
time at which plasma concentrations typically peaked (clinical [5]; both): 0.5 to 1 h
time by which eliminated from systemic circulation (clinical [5]; both): ≤ 6 h
time by which plasma concentrations fell below LLOQ (clinical [5]; both): 4 to 5 h
time from which plasma concentrations were evident (clinical [5]; both): 0.25 h
time of maximum plasma concentrations (range) (clinical [5]; both): 0.25 to 0.50 h
median time to Cmax (clinical [5]): 1 h
SMILES: O=C(O)CCCc1ccccc1 [PB, sodium phenylbutyrate]
relationship between exposure and body weight ([1]; population PK analysis): not appreciably affected by body weight
fraction excreted in the urine as phenylacetylglutamine [4]: 80-100%

concentration at 1 h (clinical [2]; Plasma Concentration, Mean): 503 ng/mL
concentration at 4 h (clinical [2]; Plasma Concentration, Mean): 636 ng/mL
concentration at 1 h (clinical [2]; Plasma Concentration, Median): 248 ng/mL
concentration at 4 h (clinical [2]; Plasma Concentration, Median): 446 ng/mL
concentration at 1 h (clinical [2]; [7]): 448 ng/mL
concentration at 4 h (clinical [2]; [7]): 566 ng/mL
Plasma Concentration, Median (clinical [2]; both): 20.0 ng/mL
Plasma Concentration, Min (clinical [2]; both): 20.0 ng/mL
steady state reached by (clinical [2]; both): ≤ 12 Week
Plasma Concentration, Min (clinical [2]; both, 1 h): 20.0 ng/mL
Plasma Concentration, Min (clinical [2]; both, 4 h): 20.0 ng/mL
accumulation in plasma after once- or twice-daily dosing (clinical [2]): little accumulation
effect of age on steady-state plasma concentration (clinical [2]): no difference
effect of mild renal insufficiency on steady-state plasma concentration (clinical [2]): no discernible difference
Plasma protein binding (Plasma protein): ~99%
fraction unbound [3]: 0.02
AUC(0-inf) (clinical [5]; both sexes, AUC(0-inf)): 3910 ng·h/mL
AUC(0-t) (clinical [5]; both sexes, AUC(0-last)): 4360 ng·h/mL
Cmax (clinical [5]; both sexes, Cmax): 741 ng/mL
half-life (clinical [5]; both sexes, T1/2): 4.34 h
Tmax (clinical [5]; both sexes, Tmax): 4.5 h
Tmax (clinical [5]; both sexes, Tmax Median): 4.5 h
Vd/F (clinical [5]; both sexes, Vz/F): 1600 L
half-life (clinical [5]; [6]): 2.51 to 8.71 h
Cmax (clinical [5]; both sexes, mean Cmax): 871 ng/mL
Cmax (clinical [5]; both sexes, po, Cmax): 741 ng/mL
Tmax (clinical [5]; both sexes, po, Tmax, Median): 4.5 h
AUG(0-last) (clinical [5]; both): 4360 (79.4) ng.h/ml
Tmax (clinical [5]; both): 10.00 h
increase in exposure (AUC) with high-fat, high-calorie meal (clinical [5]; both): 46%
time of maximum plasma concentrations (range) (clinical [5]; both): 1.50 to 10.00 h
AUC(0-last), Adj Geo Mean (clinical [5]; both, po): 4460 ng·h/mL
Cmax, Adj Geo Mean (clinical [5]; both, po): 755 ng/mL
median time to Cmax (clinical [5]): 4.5 h
SMILES: C[C@H](CCC(=O)NCCS(=O)(=O)O)[C@H]1CC[C@H]2[C@@H]3[C@@H](O)C[C@@H]4C[C@H](O)CC[C@]4(C)[C@H]3CC[C@]12C [TURSO, taurursodiol]
metabolites detected in human hepatocytes versus rat and minipig hepatocytes (human hepatocytes): also detected in rat and minipig hepatocytes
steady-state plasma concentrations versus endogenous levels (clinical [2]): at least an order of magnitude higher than endogenous levels
